Assay results reported in ChEMBL document CHEMBL4706604, “Design, synthesis and biological evaluation of indanone-chalcone hybrids as potent and selective hCES2A inhibitors” (Eur J Med Chem, 2021).

How the values were obtained:
Cocaine esterase = target: T1, Cocaine esterase (Homo sapiens, UniProt O00748); assay: Inhibition of hCES2A in human liver microsome assessed as reduction in fluorescein diacetate hydrolysis preincubated for 10 mins followed by substrate addition measured after 20 mins by fluorescence analysis; format: microsomes
T1 sequence (O00748 whole entry): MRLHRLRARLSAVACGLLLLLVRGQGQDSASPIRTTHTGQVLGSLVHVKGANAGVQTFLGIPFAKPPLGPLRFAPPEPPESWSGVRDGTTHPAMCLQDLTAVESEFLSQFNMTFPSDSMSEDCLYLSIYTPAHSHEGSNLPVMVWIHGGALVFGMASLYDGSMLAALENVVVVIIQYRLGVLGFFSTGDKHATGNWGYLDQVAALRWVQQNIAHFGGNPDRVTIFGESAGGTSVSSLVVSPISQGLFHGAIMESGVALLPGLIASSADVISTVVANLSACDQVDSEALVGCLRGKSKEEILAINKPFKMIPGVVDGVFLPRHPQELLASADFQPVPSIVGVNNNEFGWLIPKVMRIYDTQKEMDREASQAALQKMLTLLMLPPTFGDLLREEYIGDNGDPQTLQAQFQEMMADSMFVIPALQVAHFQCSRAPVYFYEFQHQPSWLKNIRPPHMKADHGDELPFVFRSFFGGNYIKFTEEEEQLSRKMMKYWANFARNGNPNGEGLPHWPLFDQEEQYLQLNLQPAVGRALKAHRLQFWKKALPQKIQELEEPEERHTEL

Cholinesterase = Cholinesterase (Homo sapiens, UniProt P06276); assay: Inhibition of BChE in human plasma assessed as reduction in butyrylthiocholineiodide hydrolysis preincubated for 3 mins followed by substrate addition; format: cell-free
Chain of Cholinesterase (P06276 whole entry): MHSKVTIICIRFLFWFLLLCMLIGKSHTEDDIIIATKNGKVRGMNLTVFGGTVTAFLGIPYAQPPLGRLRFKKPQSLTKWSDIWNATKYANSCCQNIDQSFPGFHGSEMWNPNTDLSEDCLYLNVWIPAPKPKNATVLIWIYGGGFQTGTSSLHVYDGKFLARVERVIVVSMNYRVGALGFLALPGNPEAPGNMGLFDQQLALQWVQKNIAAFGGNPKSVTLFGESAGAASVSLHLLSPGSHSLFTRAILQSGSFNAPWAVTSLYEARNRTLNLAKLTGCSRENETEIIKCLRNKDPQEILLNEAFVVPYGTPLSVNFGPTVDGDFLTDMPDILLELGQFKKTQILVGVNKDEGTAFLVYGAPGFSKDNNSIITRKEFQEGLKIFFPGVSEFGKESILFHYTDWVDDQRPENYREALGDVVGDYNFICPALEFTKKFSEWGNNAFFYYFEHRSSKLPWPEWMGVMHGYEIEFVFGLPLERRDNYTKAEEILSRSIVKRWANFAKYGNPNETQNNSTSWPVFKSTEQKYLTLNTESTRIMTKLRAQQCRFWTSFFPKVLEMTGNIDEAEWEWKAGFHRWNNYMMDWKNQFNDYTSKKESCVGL

[1] = Metabolic stability at phase 1 in human liver microsomes assessed as half life at 10 uM by LC-UV analysis
[2] = Metabolic stability at phase 2 in human liver microsomes assessed as half life at 10 uM by LC-UV analysis
Liver carboxylesterase 1 = target: T2, Liver carboxylesterase 1 (Homo sapiens, UniProt P23141); assay: Inhibition of hCES1A in human liver microsome assessed as reduction in D-Iuciferin methyl ester hydrolysis preincubated for 10 mins followed by substrate addition measured after 10 mins by luminescence analysis; format: microsomes
T2 sequence (P23141 whole entry): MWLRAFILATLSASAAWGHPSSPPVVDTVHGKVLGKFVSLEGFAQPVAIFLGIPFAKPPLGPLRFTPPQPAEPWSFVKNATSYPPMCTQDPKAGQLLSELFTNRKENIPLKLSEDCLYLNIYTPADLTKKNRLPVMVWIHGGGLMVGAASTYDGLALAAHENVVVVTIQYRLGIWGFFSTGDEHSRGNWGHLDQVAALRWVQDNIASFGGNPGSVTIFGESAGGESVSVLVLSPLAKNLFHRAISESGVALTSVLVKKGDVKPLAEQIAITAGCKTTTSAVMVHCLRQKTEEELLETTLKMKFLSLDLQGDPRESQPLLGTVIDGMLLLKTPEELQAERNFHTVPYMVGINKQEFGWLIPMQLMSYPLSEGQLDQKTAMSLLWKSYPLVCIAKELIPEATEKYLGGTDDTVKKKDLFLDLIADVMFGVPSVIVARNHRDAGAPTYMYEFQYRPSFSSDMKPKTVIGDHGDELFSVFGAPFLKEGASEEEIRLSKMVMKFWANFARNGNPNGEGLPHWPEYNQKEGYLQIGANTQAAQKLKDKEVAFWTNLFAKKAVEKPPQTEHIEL

IC50 (Cocaine esterase)	SMILES	also measured
2860 nM	COc1cc(/C=C2\Cc3ccc(OC(C)C)cc3C2=O)ccc1O	–
2810 nM	O=C1/C(=C/c2ccc(O)c(O)c2)Cc2ccc(O)cc21	–
5940 nM	O=C1/C(=C/c2ccc(O)cc2)Cc2ccc(O)cc21	–
5230 nM	COc1ccc(/C=C2\Cc3ccc(O)cc3C2=O)c(OC)c1OC	–
1310 nM	COc1cc(/C=C2\Cc3ccccc3C2=O)ccc1O	–
1090 nM	COc1cc(/C=C2\Cc3ccc(O)cc3C2=O)ccc1O	–
1620 nM	CCCOc1ccc2c(c1)C(=O)/C(=C/c1ccc(O)c(OC)c1)C2	–
1480 nM	COc1cc(/C=C2\Cc3ccc(N)cc3C2=O)ccc1O	–
2910 nM	COc1ccc2c(c1)C(=O)/C(=C/c1ccc(O)c(OC)c1)C2	–
56000 nM	COc1ccc(/C=C2\Cc3ccc(O)cc3C2=O)cc1	–
–	COc1cc(/C=C2\Cc3ccc(N4CCCC4)cc3C2=O)ccc1O	IC50 (Cholinesterase): > 100000 nM; half-life at 10 µM [1]: 1.6 h; half-life at 10 µM [2]: 1.72 h; IC50 (Liver carboxylesterase 1): > 100000 nM
